Like-named read-outs stand apart in the source and are kept apart here.
Tested on: Acetylcholine-Bromide Induced Abdominal Constriction
Assay: Mouse Acetylcholine Bromide-Induced Abdominal Constriction Assay
Type: in vivo
Conditions: for inhibition in vivo at 30 mg/kg: @ 30 mpk/po; for ED50: po, dose producing 50% analgesia, probit analysis
Description: Mouse Acetylcholine Bromide-Induced Abdominal Constriction Assay
The mouse acetylcholine-induced abdominal constiction assay, as described by Collier et al. in Brit. J. Pharmacol. Chem. Ther., 32: 295-310, 1968, with minor modifications was used to assess analgesic potency of the compounds of formula (I). The test drugs or appropriate vehicle were administered orally (p.o.) and 30 minutes later the animal received an intraperitoneal (i.p.) injection of 5.5 mg/kg acetylcholine bromide (Matheson, Coleman and Bell, East Rutherford, N.J.). The mice were then placed in groups of three into glass bell jars and observed for a ten minute observation period for the occurrence of an abdominal constriction response (defined as a wave of constriction and elongation passing caudally along the abdominal wall, accompanied by a twisting of the trunk and followed by extension of the hind limbs). The percent inhibition of this response to a nociceptive stimulus (equated to % analgesia) was calculated as follows: The % Inhibition of response, i.e., % analgesia is equal to the difference between the No. of control animals response and the No. of drug-treated animals response times 100 divided by the No. of control animals responding.
At least 15 animals were used for control and in each of the drug treated groups. At least three doses were used to determine each dose response curve and ED50 (that dose which would produce 50% analgesia). The ED50 values and their 95% fiducial limits were determined by a computer assisted probit analysis.

[1] = Mus musculus, 0.5 h, acetylcholine bromide 5.5 mg/kg i.p. 30 min after drug, % analgesia

SMILES | inhibition in vivo at 30 mg/kg [1] | ED50 (Mus musculus, read-out: ED50) | also measured
COc1cccc([C@@H]2CCC[C@H]3CN(C)C[C@H]32)c1 (relative stereo) [Cp-1] | 30 to 40% |  | 
COc1cccc([C@@H]2CCC[C@@H]3CN(Cc4ccccc4)C[C@H]32)c1 (relative stereo) [Cp-6] | 13.3% |  | 
CN1C[C@H]2CCC[C@@H](c3cccc(C(F)(F)F)c3)[C@@H]2C1 (relative stereo) [Cp-7, 3aα, 4α,7aβ-Octahydro-2-methyl-4-(3-trifluoromethylphenyl)-1H-isoindole Monofumarate] |  | 7.46 mg/kg | 
COc1cccc([C@@H]2CCC[C@H]3CN(C)C[C@H]32)c1OC (relative stereo) [Cp-8] | 78.8% |  | 
CN1C[C@H]2CCC[C@@H](c3ccccc3)[C@@H]2C1 (relative stereo) [Cp-13] |  | 8.35 mg/kg | 
CN1C[C@H]2CCC[C@H](c3ccc(Cl)c(Cl)c3)[C@@H]2C1 (relative stereo) [Cp-14] |  | 2.8 mg/kg | 
CN1C[C@H]2CCC[C@@H](c3ccc(Cl)c(Cl)c3)[C@@H]2C1 (relative stereo) [Cp-15] |  | 7 mg/kg | 
CN1C[C@H]2CCC[C@@H](c3ccc(C(F)(F)F)cc3)[C@@H]2C1 (relative stereo) [Cp-16] |  | 4.6 mg/kg | 
CN1C[C@H]2CCC[C@H](c3ccc(C(F)(F)F)cc3)[C@@H]2C1 (relative stereo) [Cp-17] |  |  | inhibition in vivo at 3 mg/kg (Mus musculus, 0.5 h, @ 3 mpk/po, acetylcholine bromide 5.5 mg/kg i.p. 30 min after drug, % analgesia): 33%
FC(F)(F)c1ccc([C@H]2CCC[C@@H]3CN(CCC(c4ccccc4)c4ccccc4)C[C@H]32)cc1 (relative stereo) [Cp-22] | 13.3% |  | 
Cc1cccc([C@@H]2CCC[C@@H]3CN(C)C[C@H]32)c1 (relative stereo) [Cp-24, 3aα,7aβ Octahydro-2-methyl-4α-(3-methylphenyl)-1H-isoindole Monofumarate] |  | 23.6 mg/kg | 
CN1C[C@@H]2CCC[C@@H](c3ccc(Br)cc3)[C@@H]2C1 (relative stereo) [Cp-34] | 100% |  | 
Clc1ccc([C@H]2CCC[C@H]3CNC[C@H]32)cc1Cl (relative stereo) [Cp-35, 4β-(3,4-dichlorophenyl)-3aα,7aα-octahydro-1H-isoindole] |  | 9.63 mg/kg | 
CN1C[C@@H]2CCC[C@H](c3ccccc3)[C@@H]2C1 (relative stereo) [Cp-43] |  | 4.9 mg/kg | 
CN1C[C@@H]2CCC[C@H](c3ccc(Br)cc3)[C@@H]2C1 (relative stereo) [Cp-44, 4β-bromophenyl-2-methyl-3aα,7aα-octahydro-1H-isoindole] |  | 9.15 mg/kg | 
CN1C[C@@H]2CCC[C@H](c3ccc(Cl)c(Cl)c3)[C@@H]2C1 (relative stereo) [Cp-46] | 100% |  | 
Cc1cccc(C2CCCC3CN(C)CC32)c1.O=C(O)/C=C/C(=O)O (single isomer, unassigned; (-)) [Cp-24-, (-)3aα,7aβ Octahydro-2-methyl-4α-(3-methylphenyl)-1H-isoindole Monofumarate] |  |  | ED50: 24.9 mpk
CCCCN1CC2CCCC(c3cccc(C(F)(F)F)c3)C2C1 (stereo not shown) [Cp-18] | 66.7% |  | 
Cc1cccc([C@@H]2CCC[C@@H]3CN(C)C[C@@H]32)c1.O=C(O)/C=C/C(=O)O [Cp-24+, (+)3aα,4α,7aβ Octahydro-2-methyl-4-(3-methylphenyl)-1H-isoindole Monofumarate] |  |  | ED50: 21.6 mpk
